Experimental data published in patent US10640497B2, “Microbiocidal oxadiazole derivatives” (SYNGENTA PARTICIPATIONS AG, priority 2015, dated 2020).

Legend:
[1] = test system: Glomerella lagenarium (Colletotrichum lagenarium); assay: Fungicidal activity against Glomerella lagenarium (Colletotrichum lagenarium), liquid culture, cucumber, preventative (anthracnose); assay type: cell-based; settings: Colletotrichum orbiculare, liquid culture (PDB), growth inhibition measured photometrically 3-4 days after application, compared to untreated control
Experimental: Mycelia fragments or conidia suspensions of a fungus, prepared either freshly from liquid cultures of the fungus or from cryogenic storage, are directly mixed into nutrient broth. DMSO solutions of the test compound (max. 10 mg/ml) is diluted with 0.025% Tween20 by a factor of 50 and 10 μl of this solution is pipetted into a microtiter plate (96-well format). The nutrient broth containing the fungal spores/mycelia fragments is then added to give an end concentration of the tested compound. The test plates are incubated in the dark at 24° C. and 96% relative humidity. The inhibition of fungal growth is determined photometrically after 2 to 7 days, depending on the pathosystem, and percent antifungal activity relative to the untreated check is calculated. Conidia of the fungus from cryogenic storage are directly mixed into nutrient broth (PDB potato dextrose broth). After placing a (DMSO) solution of test compound into a microtiter plate (96-well format), the nutrient broth containing the fungal spores is added. The test plates are incubated at 24° C. and the inhibition of growth is measured photometrically 3-4 days after application.

[2] = test system: Phakopsora pachyrhizi; assay: Fungicidal activity against Phakopsora pachyrhizi, soybean, leaf disc preventative (Asian soybean rust); assay type: in vivo; settings: foliar, 288 h, 12-14 days after application, compared to untreated control
Experimental: Leaf disks or leaf segments of various plant species are cut from plants grown in a greenhouse. The cut leaf disks or segments are placed in multiwell plates (24-well format) onto water agar. The leaf disks are sprayed with a test solution before (preventative) or after (curative) inoculation. Compounds to be tested are prepared as DMSO solutions (max. 10 mg/ml) which are diluted to the appropriate concentration with 0.025% Tween20 just before spraying. The inoculated leaf disks or segments are incubated under defined conditions (temperature, relative humidity, light, etc.) according to the respective test system. A single evaluation of disease level is carried out 3 to 14 days after inoculation, depending on the pathosystem. Percent disease control relative to the untreated check leaf disks or segments is then calculated. Soybean leaf disks are placed on water agar in multiwell plates (24-well format) and sprayed with the formulated test compound diluted in water. One day after application leaf discs are inoculated by spraying a spore suspension on the lower leaf surface. After an incubation period in a climate cabinet of 24-36 hours in darkness at 20° C. and 75% rh leaf disc are kept at 20° C. with 12 h light/day and 75% rh. The activity of a compound is assessed as percent disease control compared to untreated when an appropriate level of disease damage appears in untreated check leaf disks (12-14 days after application).

[3] = test system: Puccinia recondita f. sp. tritici; assay: Fungicidal activity against Puccinia recondita f. sp. tritici, wheat, leaf disc curative (brown rust); assay type: in vivo; settings: foliar, 144 h, wheat leaf segments, curative (applied 1 day after inoculation), 6-8 days after application, compared to untreated control
Experimental: (§1) Leaf disks or leaf segments of various plant species are cut from plants grown in a greenhouse. The cut leaf disks or segments are placed in multiwell plates (24-well format) onto water agar. The leaf disks are sprayed with a test solution before (preventative) or after (curative) inoculation. Compounds to be tested are prepared as DMSO solutions (max. 10 mg/ml) which are diluted to the appropriate concentration with 0.025% Tween20 just before spraying. The inoculated leaf disks or segments are incubated under defined conditions (temperature, relative humidity, light, etc.) according to the respective test system. A single evaluation of disease level is carried out 3 to 14 days after inoculation, depending on the pathosystem. Percent disease control relative to the untreated check leaf disks or segments is then calculated. Wheat leaf segments cv. Kanzler are placed on agar in multiwell plates (24-well format). The leaf segments are inoculated with a spore suspension of the fungus. Plates are stored in darkness at 19° C. and 75% rh. The formulated test compound diluted in water is applied 1 day after inoculation. The leaf segments are incubated at 19° C. and 75% rh under a light regime of 12 h light/12 h darkness in a climate cabinet and the activity of a compound is assessed as percent disease control compared to untreated when an appropriate level of disease damage appears in untreated check leaf segments (6-8 days after application).

[4] = test system: Puccinia recondita f. sp. tritici; assay: Fungicidal activity against Puccinia recondita f. sp. tritici, wheat, leaf disc preventative (brown rust); assay type: in vivo; settings: foliar, wheat leaf segments, preventative (inoculated 1 day after application), 7-9 days after application, compared to untreated control
Experimental: as §1, with “plates (24-well format) and sprayed with the formulated test compound diluted in water. The leaf” for “plates (24-well format). The leaf”, “of the fungus 1 day” for “of the fungus. Plates are stored in darkness at 19° C. and 75% rh. The formulated test compound diluted in water is applied 1 day”, “day after application. The inoculated” for “day after inoculation. The leaf”, “application. The inoculated leaf segments” for “inoculation. The leaf segments”, “leaf segments (7-9 days after” for “leaf segments (6-8 days after”

Structure (SMILES) | inhibition of growth at 20 ppm [1] [%] | pest or weed control at 200 ppm [2] [%] | pest or weed control at 200 ppm [3] [%] | pest or weed control at 200 ppm [4] [%]
O=C1CCCN1Cc1ccc(-c2noc(C(F)(F)F)n2)cc1 [Compound A-1, 1-[[4-[5-(trifluoromethyl)-1,2,4-oxadiazol-3-yl]phenyl]methyl]pyrrolidin-2-one] | ≥ 80 | ≥ 80 | ≥ 80 | ≥ 80
O=C1CCCCN1Cc1ccc(-c2noc(C(F)(F)F)n2)cc1 [Compound A-2, 1-[[4-[5-(trifluoromethyl)-1,2,4-oxadiazol-3-yl]phenyl]methyl]piperidin-2-one] | – | ≥ 80 | ≥ 80 | ≥ 80
O=C1COCCN1Cc1ccc(-c2noc(C(F)(F)F)n2)cc1 [Compound A-3, 4-[[4-[5-(trifluoromethyl)-1,2,4-oxadiazol-3-yl]phenyl]methyl]morpholin-3-one] | – | ≥ 80 | ≥ 80 | ≥ 80
CC1(C)CON(Cc2ccc(-c3noc(C(F)(F)F)n3)cc2)C1=O [Compound A-4, 4,4-dimethyl-2-[[4-[5-(trifluoromethyl)-1,2,4-oxadiazol-3-yl]phenyl]methyl]isoxazolidin-3-one] | ≥ 80 | ≥ 80 | ≥ 80 | ≥ 80
CC1(C)CC(=O)N(Cc2ccc(-c3noc(C(F)(F)F)n3)cc2)O1 [Compound A-6, 5,5-dimethyl-2-[[4-[5-(trifluoromethyl)-1,2,4-oxadiazol-3-yl]phenyl]methyl]isoxazolidin-3-one] | ≥ 80 | ≥ 80 | ≥ 80 | ≥ 80
CC1CC(=O)N(Cc2ccc(-c3noc(C(F)(F)F)n3)cc2)C1 (centres unmarked) [Compound A-8, 4-methyl-1-[[4-[5-(trifluoromethyl)-1,2,4-oxadiazol-3-yl]phenyl]methyl]pyrrolidin-2-one] | ≥ 80 | ≥ 80 | ≥ 80 | ≥ 80
O=C1CCCN1Cc1ccc(-c2noc(C(F)(F)F)n2)cn1 [Compound A-28, 1-[[5-[5-(trifluoromethyl)-1,2,4-oxadiazol-3-yl]-2-pyridyl]methyl]pyrrolidin-2-one] | ≥ 80 | – | ≥ 80 | ≥ 80
COCC(=O)N1CCN(Cc2ccc(-c3noc(C(F)(F)F)n3)cc2)C(=O)C1 [Compound A-31, 4-(2-methoxyacetyl)-1-[[4-[5-(trifluoromethyl)-1,2,4-oxadiazol-3-yl]phenyl]methyl]piperazin-2-one] | ≥ 80 | – | ≥ 80 | ≥ 80
O=C1CNCCN1Cc1ccc(-c2noc(C(F)(F)F)n2)cc1 [Compound A-36, 1-[[4-[5-(trifluoromethyl)-1,2,4-oxadiazol-3-yl]phenyl]methyl]piperazin-4-ium-2-one; chloride] | – | – | – | ≥ 80
O=C1CCCCN1Cc1ccc(-c2noc(C(F)(F)F)n2)c(F)c1 [Compound A-44, 1-[[3-fluoro-4-[5-(trifluoromethyl)-1,2,4-oxadiazol-3-yl]phenyl]methyl]piperidin-2-one] | ≥ 80 | – | ≥ 80 | ≥ 80
O=C1OCCN1Cc1ccc(-c2noc(C(F)(F)F)n2)cc1 [Compound A-45, 3-[[4-[5-(trifluoromethyl)-1,2,4-oxadiazol-3-yl]phenyl]methyl]oxazolidin-2-one] | ≥ 80 | – | ≥ 80 | ≥ 80
CC1(C)CCCN(Cc2ccc(-c3noc(C(F)(F)F)n3)nc2)C1=O [Compound A-52, 3,3-dimethyl-1-[[6-[5-(trifluoromethyl)-1,2,4-oxadiazol-3-yl]-3-pyridyl]methyl]piperidin-2-one] | ≥ 80 | – | – | –
CS(=O)(=O)N1CC(=O)N(Cc2ccc(-c3noc(C(F)(F)F)n3)cc2)C(=O)C1 [Compound A-59, 4-methylsulfonyl-1-[[4-[5-(trifluoromethyl)-1,2,4-oxadiazol-3-yl]phenyl]methyl]piperazine-2,6-dione] | ≥ 80 | ≥ 80 | – | ≥ 80
CN(C)S(=O)(=O)N1CC(=O)N(Cc2ccc(-c3noc(C(F)(F)F)n3)cc2)C(=O)C1 [Compound A-60, N,N-dimethyl-3,5-dioxo-4-[[4-[5-(trifluoromethyl)-1,2,4-oxadiazol-3-yl]phenyl]methyl]piperazine-1-sulfonamide] | – | ≥ 80 | – | ≥ 80
O=C1CNCC(=O)N1Cc1ccc(-c2noc(C(F)(F)F)n2)cc1 [Compound A-61, 1-[[4-[5-(trifluoromethyl)-1,2,4-oxadiazol-3-yl]phenyl]methyl]piperazin-4-ium-2,6-dione; chloride] | ≥ 80 | – | – | –
O=C1CCCN1Cc1ccc(-c2noc(C(F)(F)F)n2)c(F)c1 [Compound A-63, 1-[[3-fluoro-4-[5-(trifluoromethyl)-1,2,4-oxadiazol-3-yl]phenyl]methyl]pyrrolidin-2-one] | ≥ 80 | – | ≥ 80 | ≥ 80
CC1(C)CON(Cc2ccc(-c3noc(C(F)(F)F)n3)c(F)c2)C1=O [Compound A-64, 2-[[3-fluoro-4-[5-(trifluoromethyl)-1,2,4-oxadiazol-3-yl]phenyl]methyl]-4,4-dimethyl-isoxazolidin-3-one] | ≥ 80 | – | – | ≥ 80
O=S1(=O)CCCN1Cc1ccc(-c2noc(C(F)(F)F)n2)cc1Cl [Compound B-2, 2-[[2-chloro-4-[5-(trifluoromethyl)-1,2,4-oxadiazol-3-yl]phenyl]methyl]-1,2-thiazolidine 1,1-dioxide] | ≥ 80 | – | – | ≥ 80
CN1CCCN(Cc2ccc(-c3noc(C(F)(F)F)n3)cc2)S1(=O)=O [Compound B-3, 2-methyl-6-[[4-[5-(trifluoromethyl)-1,2,4-oxadiazol-3-yl]phenyl]methyl]-1,2,6-thiadiazinane 1,1-dioxide] | ≥ 80 | – | ≥ 80 | ≥ 80
CN1CCCN(Cc2ccc(-c3noc(C(F)(F)F)n3)cc2Cl)S1(=O)=O [Compound B-4, 2-[[2-chloro-4-[5-(trifluoromethyl)-1,2,4-oxadiazol-3-yl]phenyl]methyl]-6-methyl-1,2,6-thiadiazinane 1,1-dioxide] | ≥ 80 | – | – | –
